According to patent US20190380980A1, “A Method For Treating Peripheral Inflammatory Disease” (Dublin City University, priority 2015, published 2019):

How the values were obtained:
[1] = tested on: Bone marrow derived dendritic cells (BMDCs); test: In vitro screening of oleamide and analogues: cytokine secretion by LPS-stimulated BMDCs; format: cell-based, Balb/c mice; conditions: for immunomodulatory effect: summary statement on the cytokine tables; for +LPS IL-12p40 / +LPS IL-12p70 / +LPS IL-23 / +LPS TNF-α: Table 3, BMDCs, 25 uM compound 1 hour prior to 100 ng/ml LPS, supernatants after 24 hours
Description: FIG. 2: In vitro results: Bone marrow dendritic cells (BMDCs) were cultured in vitro and plated at 1×10^6 cells per ml. The BMDCs were conditioned with 25 uM oleamide 1 hour prior to stimulation with 100 ng/ml LPS (E. coli serotype R515). After 24 hours, the supernatants were removed and analysed for cytokine levels of IL-12p40, IL-12p70, IL-23 and TNF-alpha using specific immunoassays. (n=9)
FIGS. 4(A) to 4(G): In vitro Results: Bone marrow dendritic cells (BMDCs) were cultured in vitro and plated at 1×10^6 cells/ml. The BMDCs were conditioned with oleamide or its family of analogues at a concentration of 25 uM 1 hour prior to stimulation with 100 ng/ml LPS (E. coli serotype R515). After 24 hours, the supernatants were removed and analysed for levels of IL-12p40, IL-12p70, IL-23 and TNF-alpha using specific immunoassays. (n=9)
(§1) FIG. 6: Bone marrow-derived dendritic cells (BMDCs) were cultured in vitro and plated at 1×10^6 cells/ml. The BMDCs were conditioned with analogues of oleamide (compounds 19.2, 20.1, 36.2, 37.1 or 39.1) at a concentration of 25 μM 1 hour prior to stimulation with 100 ng/ml LPS (E. coli serotype R515). After 24 hours, the supernatants were removed and analysed for levels of IL-12p40, IL-12p70, IL-23 and TNF-alpha using specific immunoassays. (n=9)
as §1, with “7:” for “6:”, “18.2, 21.2, 22.2, 23.2, 33.1” for “19.2, 20.1, 36.2, 37.1”, “34.1 in panel A and 35.1, 38.1, 50.2 in panel B)” for “39.1)”
The concentration of cytokines in cell supernatants was determined using ELISA Duoset kits from R&D Systems in accordance with the manufacturers' instructions. Briefly, 100 μl/well of capture antibody (diluted to the appropriate concentration in PBS) was added to an ELISA plate (Nunc) and incubated overnight at room temperature. Plates were then washed three times with Wash Buffer (PBS+0.05% Tween-20) and blocked by adding 300 μl of Blocking buffer (1% (w/v) BSA/PBS) for a minimum of 1 h at room temperature. The washing step was repeated and 100 μl of samples and standards (diluted to appropriate concentrations) were added per well, in triplicate. Plates were then incubated at 2-4° C. overnight. The next day, plates were washed again and 100 μl of the biotinylated detection antibody was added to each well and incubated for 2 hours at room temperature. 100 μl of Streptavidin-horseradish-peroxidase (R&D Systems) was then added to each well, following another wash step. Plates were incubated for 20 min at room temperature. After the last washing step, 100 μl of tetramethylbenzidine (BD Biosciences) was added to each well and plates were left in the dark for 20 minutes or until a blue colour developed. Colour development was stopped by adding 50 μl of 1M sulphuric acid (Sigma-Aldrich) to the wells. The optical density was determined at 450 nm, using a VersaMax™ microplate reader (Molecular Devices). For each set of samples, a standard curve was generated and the values of unknown samples were calculated from the standard curve.
Bone marrow derived dendritic cells (BMDCs) were cultured as follows:
(Day 1) Bone marrow cells were harvested from the femur and tibia of Balb/c female mice by flushing the bone with RPMI 1640 complete media [supplemented with 10% foetal calf serum and 2% Penicilin-Steptomycin (Life Technologies, Ireland)] using a 27 gauge needle attached to a 10 ml syringe. The bone marrow cells were collected into a 50-ml Falcon tube and centrifuged at 1200 RPM for 5 minutes. […]

[2] = tested on: BV2 murine microglial cells; conditions: lipopolysaccharide-stimulated neuronal microglia; cited from earlier work

CC/C=C\C/C=C\C/C=C\CCCCCCCC(N)=O [linolenamide]
immunomodulatory effect [1]: immunomodulatory effect

CCCCCCCC/C=C\CCCCCCCC(N)=O [Ole, 9(Z)-Octadecenamide]
activation of p38, ERK, PI3-kinase/Akt, ROS accumulation and NF-κB activation [2]: blocks activation
pro-inflammatory mediators [2]: suppressor of pro-inflammatory mediators
+LPS IL-12p40 [1]: ↓
+LPS IL-12p70 [1]: ↓
+LPS IL-23 [1]: ↓
+LPS TNF-α [1]: →
immunomodulatory effect [1]: immunomodulatory effect

CCCCCCCC/C=C\CCCCCCCC(=O)Nc1ccccn1 [Compound 37-1, N-(pyridin-2-yl) oleamide]
+LPS IL-12p40 [1]: →
+LPS IL-12p70 [1]: →
+LPS IL-23 [1]: ↓
+LPS TNF-α [1]: ↓

CCCCCCCC/C=C\CCCCCCCC(=O)NCc1ccccc1 [Compound 18-2, N-benzyloleamide]
+LPS IL-12p40 [1]: ↑
+LPS IL-12p70 [1]: ↑
+LPS IL-23 [1]: →
+LPS TNF-α [1]: →

CCCCCCCC/C=C\CCCCCCCC(=O)NCc1ccc(OC)cc1 [Compound 21-2, N-(4-methoxybenzyl) oleamide]
+LPS IL-12p40 [1]: ↑
+LPS IL-12p70 [1]: ↑
+LPS IL-23 [1]: ↓
+LPS TNF-α [1]: →

CCCCC/C=C\C/C=C\C/C=C\C/C=C\CCCC(N)=O [arachidonamide]
immunomodulatory effect [1]: immunomodulatory effect

NC(=O)COCCCCOc1ccccc1 [Compound 50-2, 2-(4-phenoxybutoxy) acetamide]
+LPS IL-12p40 [1]: →
+LPS IL-12p70 [1]: →
+LPS IL-23 [1]: ↓
+LPS TNF-α [1]: →

CCCCCCCC/C=C\CCCCCCCC(=O)NCc1ccccc1OC [Compound 23-2, N-(2-methoxybenzyl) oleamide]
+LPS IL-12p40 [1]: ↑
+LPS IL-12p70 [1]: →
+LPS IL-23 [1]: ↓
+LPS TNF-α [1]: →

CCCCCCCCCCCCCCCCCC(N)=O [stearamide]
immunomodulatory effect [1]: immunomodulatory effect

CCCCCCCC/C=C\CCCCCCCC(=O)Nc1ccc(N(CC)CC)cc1 [Compound 20-1, N-(4-(diethylamino)phenyl)oleamide]
+LPS IL-12p40 [1]: →
+LPS IL-12p70 [1]: ↓
+LPS IL-23 [1]: →
+LPS TNF-α [1]: →

CCCCCCCC/C=C\CCCCCCCC(=O)Nc1ccc(N(C)C)cc1 [Compound 19-2, N-(4-(dimethylamino)phenyl)oleamide]
+LPS IL-12p40 [1]: →
+LPS IL-12p70 [1]: →
+LPS IL-23 [1]: →
+LPS TNF-α [1]: →

CCCCCCCC/C=C\CCCCCCCC(=O)Nc1cccnc1 [Compound 38-1, N-(pyridin-3-yl) oleamide]
+LPS IL-12p40 [1]: ↓
+LPS IL-12p70 [1]: →
+LPS IL-23 [1]: ↓
+LPS TNF-α [1]: →

CCCCCC/C=C\CCCCCCCC(N)=O [palmitoleamide]
immunomodulatory effect [1]: immunomodulatory effect

CCCCCCCC/C=C\CCCCCCCC(=O)Nc1ccc2ccccc2n1 [Compound 36-2, N-(quinolin-2-yl) oleamide]
+LPS IL-12p40 [1]: ↓
+LPS IL-12p70 [1]: ↓
+LPS IL-23 [1]: ↓
+LPS TNF-α [1]: ↓

CCCCCCCC/C=C\CCCCCCCC(=O)NCc1cccc(OC)c1 [Compound 22-2, N-(3-methoxybenzyl) oleamide]
+LPS IL-12p40 [1]: ↑
+LPS IL-12p70 [1]: ↑
+LPS IL-23 [1]: ↓
+LPS TNF-α [1]: →

CCCCCCCC/C=C\CCCCCCCC(=O)NCc1ccccc1C(F)(F)F [Compound 35-1, N-(2-(trifluoromethyl)benzyl)oleamide]
+LPS IL-12p40 [1]: →
+LPS IL-12p70 [1]: →
+LPS IL-23 [1]: ↓
+LPS TNF-α [1]: →

NC(=O)COCCCOCc1ccccc1 [Compound 51-2, 2-(3-(benzyloxy)propoxy) acetamide]
+LPS IL-12p40 [1]: ↓
+LPS IL-12p70 [1]: ↓
+LPS IL-23 [1]: ↓
+LPS TNF-α [1]: →

CCCCCCCC/C=C\CCCCCCCC(=O)NCc1ccc(C(F)(F)F)cc1 [Compound 33-1, N-(4-(trifluoromethyl)benzyl)oleamide]
+LPS IL-12p40 [1]: ↑
+LPS IL-12p70 [1]: ↑
+LPS IL-23 [1]: →
+LPS TNF-α [1]: →

CCCCCCCC/C=C\CCCCCCCC(=O)Nc1ccncc1 [Compound 39-1, N-(pyridin-4-yl) oleamide]
+LPS IL-12p40 [1]: ↓
+LPS IL-12p70 [1]: ↓
+LPS IL-23 [1]: →
+LPS TNF-α [1]: →

CCCCCCCC/C=C\CCCCCCCC(=O)NCc1cccc(C(F)(F)F)c1 [Compound 34-1, N-(3-(trifluoromethyl)benzyl)oleamide]
+LPS IL-12p40 [1]: ↑
+LPS IL-12p70 [1]: →
+LPS IL-23 [1]: ↓
+LPS TNF-α [1]: →

CCCCC/C=C\C/C=C\CCCCCCCC(N)=O [linoleamide]
immunomodulatory effect [1]: immunomodulatory effect

CCCCCCCCCCCCCCCC(N)=O [palmitamide]
immunomodulatory effect [1]: immunomodulatory effect
